# Experimental data from patent US20030118597A1 (priority 2001, published 2003).
# Assays:
# [1] = tested on: microsomal cyclooxygenase system; conditions: animal models; cited from earlier work
# [2] = preliminary data, animal model
# [3] = tested on: hypophyseal adrenal system; conditions: cited from earlier work
Molecule,strength relative to Indomethacine [1] [times],allergen component of the venom [2],potency of released cortisol relative to hydrocortisone [3] [times]
Adolapin [Ado lapin],70,,
CC[C@H](C)[C@H](NC(=O)CN)C(=O)NCC(=O)N[C@@H](C)C(=O)N[C@H](C(=O)N[C@@H](CC(C)C)C(=O)N[C@@H](CCCCN)C(=O)N[C@H](C(=O)N[C@@H](CC(C)C)C(=O)N[C@H](C(=O)N[C@H](C(=O)NCC(=O)N[C@@H](CC(C)C)C(=O)N1CCC[C@H]1C(=O)N[C@@H](C)C(=O)N[C@@H](CC(C)C)C(=O)N[C@H](C(=O)N[C@@H](CO)C(=O)N[C@@H](Cc1c[nH]c2ccccc12)C(=O)N[C@H](C(=O)N[C@@H](CCCCN)C(=O)N[C@@H](CCCNC(=N)N)C(=O)N[C@@H](CCCCN)C(=O)N[C@@H](CCCNC(=N)N)C(=O)N[C@@H](CCC(N)=O)C(=O)N[C@@H](CCC(N)=O)C(N)=O)[C@@H](C)CC)[C@@H](C)CC)[C@@H](C)O)[C@@H](C)O)C(C)C)C(C)C [Melittin],,major allergen component,100
Phospholipase A2,,major allergen component,
